Assay results reported in US20140011706A1, “SURFACE DISPLAY OF PO[…] METAL PORPHYRIN OR A FLAVIN” (Autodisplay Biotech GMBH, priority 2010, published 2014).
Read-outs that look alike come from different tables or passages of the source.

How the values were obtained:
CYP106A2 [1] = molecular target: T1, CYP106A2 (Priestia megaterium, UniProt Q06069)
CYP106A2 [2] = molecular target: T1, CYP106A2; assay: NADPH consumption of cells displaying CYP106A2 in the presence of imipramine (N-demethylation); type: biochemical, E. coli BL21(DE3); parameters: expressed in transfected cells; host or cells: E. coli BL21(DE3) pET-CYP13, induced with 1 mM IPTG; settings: imipramine 2.5 μM, NADPH 200 μM, BL21(DE3) pETCYP13 cells OD578=2.5, Adx and AdR added
Procedure: The cells were prepared as described in Example 1. Redox equivalents are transferred from NADPH via the proteins AdR and Adx to the converting enzyme.
The reaction mixture contained in a total volume of 0.2 mL Hepes buffer (50 mM, 0.05% Tween20, pH 7.4), imipramine (2.5 μM), Adx ([…]), AdR (0.5 μM), NADPH (200 μM) and cells of E. coli BL21(DE3) or BL21(DE3) pETCYP13 corresponding to an OD578=2.5.
The by-product formalin (cf. FIG. 17) has been photometrically identified to be produced by the cells displaying CYP106A2, but not in the control cells (data not shown).

[3] = E. coli BL21(DE3) pETCYP13 whole cells, induced with 1 mM IPTG, Adx and AdR added

Compound	product formation from substrate (HPLC product peak) (CYP106A2 [1]; BL21(DE3) pETCYP13 whole cells, 1 mM IPTG, without addition of Adx)	product formation from substrate (HPLC product peak) (CYP106A2 [1]; [3])	amount of product 15β-deoxycorticosterone (HPLC) (CYP106A2 [1]; TolC negative strain JW5503-1 (DE3) pETCYP13 compared with TolC positive BL21(DE3) pETCYP13, IPTG induced)	conversion indicated by NADPH consumption difference versus control cells (CYP106A2 [2])
C[C@]12CC[C@H]3[C@@H](CCC4=CC(=O)CC[C@@]43C)[C@@H]1CC[C@@H]2C(=O)CO [11-deoxycorticosterone]	no product peak	resulted in a product peak	decreased	
CC(C)C1=CC2=CC[C@@H]3[C@](C)(CCC[C@@]3(C)C(=O)O)[C@H]2CC1 [abietic acid]		a product occurred at the expected retention time		
CN(C)CCCN1c2ccccc2CCc2ccccc21 [imipramine]				conversion of imipramine into desipramine
